The values below come from patent publication US20120004405A1, “COMPOUNDS HAVING ACTIVITY IN CORRECTING MUTANT CFTR CELLULAR PROCESSING” (priority 2008, published 2012).

The target in data set [1] is T1, ΔF508-CFTR (Homo sapiens, UniProt P13569, DEL508-508).
T1 construct: Human epithelial cells containing wildtype (A) or ΔF508-CFTR (B); endogenous in cells; host or cells: CFBE14o- human epithelial cells (provided by Dr. D. C. Gruenert)
The data set is described as follows: Iodide efflux from ΔF508-CFTR epithelial cells. The settings on record: for iodide efflux from ΔF508-CFTR epithelial cells: iodide-loaded cells, compound added at time point 0, iodide sensitive electrode. Format: cell-based. How it is done:
Iodide efflux experiments were performed as described. Briefly, Cells (80-90% confluent) were incubated for 1 h in a loading buffer containing 136 mM NaI, 3 mM KNO3, 2 mM Ca(NO3)2, 11 mM glucose, and 20 mM Hepes, adjusted to pH 7.4 with NaOH. To remove extracellular iodide, cells were thoroughly washed with efflux buffer (136 mM NaNO3 replacing 136 mM NaI in the loading buffer) and then equilibrated in 2.5 ml efflux buffer for 1 min. The efflux buffer was changed at 1 min intervals over the duration of the experiment. Four minutes after anion substitution, cells were exposed to compound 1D. The amount of iodide in each 2.5 ml sample of efflux buffer was determined using an iodide-selective electrode (HNU Systems Ltd, Warrington, UK). Cells were loaded and experiments performed at room temperature.

Data set [2] has as its target T2, wildtype CFTR (Homo sapiens, UniProt P13569).
T2 construct: Human epithelial cells containing wildtype CFTR (16HBE14o-); endogenous in cells; host or cells: 16HBE14o- human epithelial cells (provided by Dr. D. C. Gruenert)
The data set is described as follows: Western blotting of cell surface expressed CFTR, wildtype epithelial cells. Format: cell-based. As to conditions: increasing concentration of compound. How it is done: (§1) Human epithelial cells containing wildtype CFTR (16HBE14o-) and the mutant cell line CFBE14o- were kindly provided by Dr. D. C. Gruenert. They were grown in suspension culture in Dulbeccós medium supplemented with streptomycin/penicillin (100 units of each/ml) and 10% foetal calf serum.
(§2) The cell pellets were solubilized by vortexing in buffer (Tris-HCl 0.06 M; 2% SDS, 10% glycerol, 0.1M dithiothreitol, 0.1% bromophenol-blue and the protease inhibitor cocktail, pH 6.8). Following centrifugation (2 min, 8.000 g) samples of the supernatant were separated on 10% poly-acrylamide slabgels. Proteins were subsequently electroblotted onto nitrocellulose paper in 0.025 M Tris, 0.192 M glycine, 20% methanol. The blots were incubated at 4° C. with 0.02M Tris-HCl, 0.15M NaCl, 0.1% Tween20, pH7.5 followed by overnight incubation at 4° C. with a 1:500 dilution of primary anti-CFTR antibody in 0.02M Tris-HCl, 0.15M NaCl, 0.1% Tween20, pH7.5. Blots were washed three times, incubated with peroxidase-conjugated anti-rabbit IgG for 2 h, and washed four times. Peroxidase activity was detected with […] reagent (ECL kit; Amersham, Braunschweig, Germany) on X-ray film.
For orientation: A western blot detects proteins with antibodies after separation by electrophoresis.

In data set [3] the test system is nasal epithelium. The data set is described as follows: Transepithelial nasal resistance measured on the inventor. Format: in vivo. The settings on record: human. Here is the method:
The effect of compound 1D was evaluated on the inventor of the present application by measurement of the transepithelial nasal resistance. This is a standard protocol for testing pharmaceutically active compounds on humans, (http://central.igc.gulbenkian.pt/cftr/vr/e/schuler_basic_protocol_for_measurement_of_transepithelial_nasal_potential_difference.pdf) (see also the results of FIG. 9).
The nasal epithelium was equilibrated with isotonic (0.9%) NaCl, 2 mM CaCl2. […] To determine the maximal possible potential differences in this experiment, the solution was changed to isotonic NaCl, 2 mM CaCl2 containing 10 μM amiloride that is known to close Na+ channels. […] After equilibration, the solution was changed to low salt with 0.09% NaCl, 0.2 mM CaCl2 containing 10 μM isoprenalol.

In data set [4] the test system is wildtype HBE14o- cells (normal CFTR). The data set is described as follows: Transepithelial resistance of wildtype HBE14o- epithelial cells. It counts as cell-based, human.
In data set [5] the target is T1, ΔF508-CFTR. The data set is described as follows: Western blotting of cell surface expressed CFTR, ΔF508-CFTR epithelial cells. It counts as cell-based. How it is done:
as §1, §2

For data set [6], the target named is T3, CFTR (Mus musculus, UniProt P26361).
T3 construct: endogenous in cells
T3 sequence (P26361 whole entry): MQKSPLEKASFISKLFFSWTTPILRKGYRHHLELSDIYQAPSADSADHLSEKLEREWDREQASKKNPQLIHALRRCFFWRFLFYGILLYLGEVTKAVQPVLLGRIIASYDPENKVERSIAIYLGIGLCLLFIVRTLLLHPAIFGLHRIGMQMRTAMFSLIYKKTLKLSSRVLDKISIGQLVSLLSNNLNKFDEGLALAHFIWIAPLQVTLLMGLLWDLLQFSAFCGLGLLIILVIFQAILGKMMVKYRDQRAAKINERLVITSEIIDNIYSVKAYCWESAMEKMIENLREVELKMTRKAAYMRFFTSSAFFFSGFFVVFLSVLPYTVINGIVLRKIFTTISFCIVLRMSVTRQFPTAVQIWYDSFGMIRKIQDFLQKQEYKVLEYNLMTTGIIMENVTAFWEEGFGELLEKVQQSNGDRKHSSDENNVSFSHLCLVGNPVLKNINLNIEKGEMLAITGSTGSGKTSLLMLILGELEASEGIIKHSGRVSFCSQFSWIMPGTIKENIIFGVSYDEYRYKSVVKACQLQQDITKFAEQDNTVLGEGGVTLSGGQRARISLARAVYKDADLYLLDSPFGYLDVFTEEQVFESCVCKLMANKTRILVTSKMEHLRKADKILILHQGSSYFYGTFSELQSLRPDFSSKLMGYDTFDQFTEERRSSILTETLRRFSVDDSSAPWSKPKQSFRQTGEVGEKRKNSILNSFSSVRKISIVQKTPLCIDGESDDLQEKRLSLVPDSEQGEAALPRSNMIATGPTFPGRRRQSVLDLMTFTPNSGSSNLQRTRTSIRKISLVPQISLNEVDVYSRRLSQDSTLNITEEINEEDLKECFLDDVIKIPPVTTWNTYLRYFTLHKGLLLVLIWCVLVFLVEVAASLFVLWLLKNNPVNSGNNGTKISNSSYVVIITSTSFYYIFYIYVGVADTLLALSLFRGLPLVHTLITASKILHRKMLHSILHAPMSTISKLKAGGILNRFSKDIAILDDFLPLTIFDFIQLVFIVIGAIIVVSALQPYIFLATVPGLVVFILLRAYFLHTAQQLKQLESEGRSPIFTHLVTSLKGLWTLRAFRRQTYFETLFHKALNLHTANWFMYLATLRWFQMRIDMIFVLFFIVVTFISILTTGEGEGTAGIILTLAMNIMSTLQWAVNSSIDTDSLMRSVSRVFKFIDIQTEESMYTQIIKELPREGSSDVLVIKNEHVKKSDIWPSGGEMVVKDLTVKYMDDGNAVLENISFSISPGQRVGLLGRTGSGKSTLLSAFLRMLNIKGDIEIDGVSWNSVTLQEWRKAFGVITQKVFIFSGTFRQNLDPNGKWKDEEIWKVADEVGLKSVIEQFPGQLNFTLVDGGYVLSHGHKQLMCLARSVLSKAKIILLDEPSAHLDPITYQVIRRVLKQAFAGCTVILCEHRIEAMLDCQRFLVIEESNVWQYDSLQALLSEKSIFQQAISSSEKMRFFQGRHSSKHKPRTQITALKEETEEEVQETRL
The data set is described as follows: Hyaluronan export through CFTR in a mouse fibroblasts cell line. It counts as cell-based. How it is done: (§3) The cells were incubated for 24 hours at 37° C., the media were replaced with fresh media and after additional 24 hours aliquots (5 and 20 μl) of the culture medium were used for measurement of the hyaluronan concentration in the cell culture medium by an ELISA. The wells of a 96 well Covalink-NH-microtiter plate (NUNC) were coated with 100 μl of a mixture of […] of hyaluronan (Healon®), 9.2 μg/ml of N-Hydroxysuccin-imide-3-sulfonic acid and 615 μl/ml of 1-ethyl-3-(3-dimethylaminopropyl)-carbodiimide for 2 hours at room temperature and overnight at 4° C. The wells were washed three times with 2 M NaCl, 41 mM MgSO4, 0.05% Tween-20 in 50 mM phosphate buffered saline pH 7.2 (buffer A) and once with 2 M NaCl, 41 mM MgSO4, in phosphate buffered saline pH 7.2. Additional binding sites were blocked by incubation with 300 μl of 0.5% bovine serum albumin in phosphate buffered saline for 30 min at 37° C. Calibration of the assay was performed with standard concentrations of hyaluronan ranging from 15 ng/ml to 6000 ng/ml in equal volumes of culture medium as used for measurement of the cellular supernatants. […] The adsorption was read at 490 nm. The concentrations in the samples were calculated from a logarithmic regression curve of the hyaluronan standard solutions.

Data set [7] has as its target T4, hyaluronan exporter MRP5 (Homo sapiens, UniProt O15440).
T4 construct: tested on human fibroblasts cultures for their influence on hyaluronan exporter MRP5; endogenous in cells; host or cells: human fibroblast cultures
In words: Determination of hyaluronan export from human fibroblasts (ELISA of culture medium). It counts as cell-based. As to conditions: incubated two days with increasing concentrations; hyaluronan in culture supernatant. How it is done: as §3
(In general: An ELISA detects its analyte on a solid surface through an enzyme-linked reagent.)

For data set [8], the system named is mutant CFBE14o- cells (ΔF508-CFTR). In words: Transepithelial resistance of mutant CFBE14o- epithelial cells. It counts as cell-based, human. Here is the method:
as §1
A cell monolayer on a thin filter membrane (growth area, 4.2 cm2; pore diameter, 0.4 μm; thickness, 20 μm; Falcon, Heidelberg, Germany) served as a test barrier for the invasive capabilities of malignant cells. When confluent, these cells from a tight epithelial sheet with a high trans-epithelial electrical resistance (TEER), which was measured continuously using a STX-2 electrode (WPI, Sarasota, USA). Permeabilization of the epithelial cell layer (MDCK-C7 cells) due to the invasive activity of the melanoma cells can be determined by trans-epithelial electrical resistance (TEER) measurements, as previously reported [24;25].

Data set [9] in a line: Alamarblue cytotoxicity assay. Format: cell-based. The settings on record: up to concentrations of 400 μM; data not shown. How it is done:
In a preferred embodiment, the present invention relates to compounds 1B, 1C, 1D 1F and 1G. […] Compound 1D is particularly preferred.
The cytotoxicity of the drugs was measured as described.
(The colour change of resazurin is a common sign of viable cells or microbes.)

“Also recorded” adds a separate entry of the source.

T1 sequence (P13569 with tags, fused parts or gaps DEL508-508): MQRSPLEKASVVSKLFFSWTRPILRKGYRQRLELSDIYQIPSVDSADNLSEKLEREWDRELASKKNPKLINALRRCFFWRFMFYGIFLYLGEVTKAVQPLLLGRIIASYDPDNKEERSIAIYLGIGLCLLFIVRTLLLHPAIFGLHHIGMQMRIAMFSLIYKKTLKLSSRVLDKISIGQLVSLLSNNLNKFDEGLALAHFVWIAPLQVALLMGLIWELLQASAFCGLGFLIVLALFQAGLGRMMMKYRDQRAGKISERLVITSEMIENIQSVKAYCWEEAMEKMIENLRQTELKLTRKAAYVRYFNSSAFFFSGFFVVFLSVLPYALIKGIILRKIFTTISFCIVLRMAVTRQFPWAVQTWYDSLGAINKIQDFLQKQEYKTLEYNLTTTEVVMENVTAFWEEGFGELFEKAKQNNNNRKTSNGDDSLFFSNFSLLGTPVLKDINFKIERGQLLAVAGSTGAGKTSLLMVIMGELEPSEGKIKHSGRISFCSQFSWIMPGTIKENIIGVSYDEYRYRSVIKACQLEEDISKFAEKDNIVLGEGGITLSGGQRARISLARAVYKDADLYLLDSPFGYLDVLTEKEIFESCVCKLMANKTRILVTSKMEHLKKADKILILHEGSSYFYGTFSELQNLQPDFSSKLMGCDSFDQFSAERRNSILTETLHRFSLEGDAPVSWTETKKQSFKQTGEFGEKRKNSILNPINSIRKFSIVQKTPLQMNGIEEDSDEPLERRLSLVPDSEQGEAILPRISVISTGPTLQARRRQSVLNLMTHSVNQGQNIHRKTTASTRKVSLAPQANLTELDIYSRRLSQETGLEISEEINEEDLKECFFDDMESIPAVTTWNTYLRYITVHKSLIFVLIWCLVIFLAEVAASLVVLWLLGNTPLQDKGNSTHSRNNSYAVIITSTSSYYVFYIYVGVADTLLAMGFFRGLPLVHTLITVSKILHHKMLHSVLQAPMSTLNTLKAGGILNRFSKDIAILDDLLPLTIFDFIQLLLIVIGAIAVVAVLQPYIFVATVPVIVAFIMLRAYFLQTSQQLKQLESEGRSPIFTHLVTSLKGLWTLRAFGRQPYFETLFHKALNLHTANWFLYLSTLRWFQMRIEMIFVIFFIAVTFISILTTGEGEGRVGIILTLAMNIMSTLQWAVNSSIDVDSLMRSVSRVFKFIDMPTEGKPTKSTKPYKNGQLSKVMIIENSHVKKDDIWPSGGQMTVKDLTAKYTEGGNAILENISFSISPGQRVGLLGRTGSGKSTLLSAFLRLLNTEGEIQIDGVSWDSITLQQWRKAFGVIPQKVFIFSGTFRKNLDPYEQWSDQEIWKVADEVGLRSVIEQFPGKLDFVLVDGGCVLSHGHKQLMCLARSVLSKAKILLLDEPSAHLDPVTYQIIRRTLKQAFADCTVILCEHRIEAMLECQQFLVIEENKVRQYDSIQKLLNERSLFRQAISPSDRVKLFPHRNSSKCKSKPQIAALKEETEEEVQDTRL
T4 sequence (O15440 whole entry): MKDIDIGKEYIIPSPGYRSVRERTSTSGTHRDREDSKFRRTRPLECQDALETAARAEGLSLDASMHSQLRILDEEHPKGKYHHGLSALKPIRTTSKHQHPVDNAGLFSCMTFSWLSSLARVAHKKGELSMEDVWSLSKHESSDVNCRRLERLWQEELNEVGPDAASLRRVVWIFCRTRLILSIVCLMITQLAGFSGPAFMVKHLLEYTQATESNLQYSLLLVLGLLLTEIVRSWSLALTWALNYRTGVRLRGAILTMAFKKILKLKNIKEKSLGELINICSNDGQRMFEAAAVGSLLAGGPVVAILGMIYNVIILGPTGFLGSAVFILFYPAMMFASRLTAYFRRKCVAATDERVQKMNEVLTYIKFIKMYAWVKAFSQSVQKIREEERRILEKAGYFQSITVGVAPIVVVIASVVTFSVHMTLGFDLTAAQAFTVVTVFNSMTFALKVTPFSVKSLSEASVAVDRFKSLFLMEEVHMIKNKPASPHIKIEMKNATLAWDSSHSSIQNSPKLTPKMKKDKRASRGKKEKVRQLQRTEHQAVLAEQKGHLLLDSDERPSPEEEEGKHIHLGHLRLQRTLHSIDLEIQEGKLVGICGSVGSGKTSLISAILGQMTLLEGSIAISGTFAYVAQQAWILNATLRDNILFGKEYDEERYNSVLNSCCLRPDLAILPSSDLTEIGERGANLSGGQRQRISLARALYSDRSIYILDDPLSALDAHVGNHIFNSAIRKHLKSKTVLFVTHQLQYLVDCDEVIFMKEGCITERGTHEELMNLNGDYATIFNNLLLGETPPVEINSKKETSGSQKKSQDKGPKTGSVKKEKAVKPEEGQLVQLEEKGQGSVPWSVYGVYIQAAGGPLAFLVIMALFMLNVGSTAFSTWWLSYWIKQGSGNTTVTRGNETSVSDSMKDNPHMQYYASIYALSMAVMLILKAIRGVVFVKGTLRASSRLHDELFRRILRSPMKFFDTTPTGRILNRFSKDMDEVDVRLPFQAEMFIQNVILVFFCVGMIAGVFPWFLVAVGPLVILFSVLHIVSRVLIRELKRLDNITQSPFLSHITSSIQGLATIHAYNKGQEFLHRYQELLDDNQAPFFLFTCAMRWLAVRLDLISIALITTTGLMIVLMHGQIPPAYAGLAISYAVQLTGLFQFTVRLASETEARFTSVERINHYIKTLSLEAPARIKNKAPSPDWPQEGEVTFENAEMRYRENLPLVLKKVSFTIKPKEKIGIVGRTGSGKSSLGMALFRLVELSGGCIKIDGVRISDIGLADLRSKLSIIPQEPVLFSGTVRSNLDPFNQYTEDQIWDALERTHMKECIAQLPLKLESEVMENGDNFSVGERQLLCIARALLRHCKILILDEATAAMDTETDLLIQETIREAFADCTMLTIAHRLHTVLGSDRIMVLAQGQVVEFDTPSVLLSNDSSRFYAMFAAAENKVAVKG

With `O=C(O)c1ccc(/C=C2\SC(=S)N(c3cccc(C(F)(F)F)c3)C2=O)cc1` [CFTR172, reference compound], the “effect on D4 activation of iodide efflux through F508-CFTR” value in data set [1] (simultaneous addition with D4) is given as “reduces the activation”.
For the compound `CC(=O)Nc1c(O)cccc1Oc1ccccc1C(=O)O` [Compound 1B, 2-(2-acetamido-3-hydroxyphenoxy)benzoic acid], the “iodide efflux from ΔF508-CFTR epithelial cells” value in data set [1] is listed as “stimulates iodide efflux”.
For the compound `CC(=O)Nc1c(O)cc(O)cc1Oc1ccc(N)cc1C(=O)O` [Compound 1D, 2-(2-acetamido-3,5-dihydroxyphenoxy)-5-aminobenzoic acid], in [2], the “expression of wildtype CFTR on the cell surface (Western blotting)” value is on record as “slightly decreased”. Moreover, in data set [3] (100 μM in isotonic NaCl, 2 mM CaCl2, after a transient increase), the transepithelial nasal resistance entry is “decreased below the equilibrating solution”. Besides, the “reversibility of the effect on transepithelial nasal resistance” value in [3] (wash out) was “reversible”. The “transepithelial resistance of epithelial cells containing normal CFTR, immediate effect” value in [4] (FIG. 10) is “drops immediately”. Besides, the “TER of normal cells over a period of 90 hours” value in [4] (FIG. 12) is “reduce the TER”. Further, the “concentration at which increase of membrane expression on ΔF508-CFTR epithelial cells was observed” value in [5] (Western blotting) was 100 µM. For the same compound, in [5] (human epithelial cells, increasing concentration of compound), the “expression of ΔF508-CFTR on the cell surface / plasma membrane (Western blotting)” value is given as “recruited to the plasma membrane; also recorded: enhanced; also recorded: restored plasma membrane expression”. For the same compound, the “hyaluronan export through CFTR” value in data set [6] was “activated”. In data set [7], the “activation of hyaluronan export from human fibroblasts” value is “most active; also recorded: most activating”. Besides, in data set [8] (100 μM), the “transepithelial resistance of ΔF508-CFTR epithelial cells over a longer time period” value was “increase in transepithelial resistance; also recorded: long lasting rescue of ΔF508-CFTR”. Moreover, the “transepithelial resistance of epithelial cells containing F508-CFTR” value in data set [8] (FIG. 10, compared to 8-Bromo-cAMP and control) is “resistance increases”. Besides, the “TER of F508-CFTR cells over a period of 90 hours” value in [8] (FIG. 12, versus control without any treatment) is “drops below the control”. Besides, the results for the “iodide efflux from ΔF508-CFTR epithelial cells” value in data set [1] and in data set [1] (listed as D4) were “stimulated a sudden burst of iodide efflux” and “channels immediately open”, respectively. The “toxicity (Alamarblue assay)” value in data set [9] was “not toxic”.
For `N=C(N)NC(=O)c1nc(Cl)c(N)nc1N` [amiloride, reference compound], the transepithelial nasal resistance entry in [3] (10 μM in isotonic NaCl, 2 mM CaCl2) is “increased to a maximal valued”.
As to `CC(C)NCC(O)c1ccc(O)c(O)c1` (stereo not shown) [isoprenalol, reference compound], the transepithelial nasal resistance result in [3] (10 μM in low salt 0.09% NaCl, 0.2 mM CaCl2) is on record as “maximal drop of the transepithelial resistance”.
